Results: patent US6683211B1, “Phenyl-propargylether derivatives” (priority 2000, dated 2004)

What was measured:
Phytophthora [1] = test: D-3b) systemic action against Phytophthora on potato plants; assay type: in vivo; conditions: Phytophthora, 96 h; 200 ppm; test D-3b) systemic (soil watering); potato plants (Bintje); evaluated after 4 days; read-out: inhibit fungal infestations
Description: (§1) D-3: Action Against Phytophthora on Potato Plants
2-3 week old potato plants (Bintje variety) are watered with a spray mixture (0.02% active ingredient based on the volume of the soil) prepared from a wettable powder formulation of the test compound. […] After 48 hours, the treated plants are infected with a sporangia suspension of the fungus. Fungus infestation is evaluated after incubation of the infected plants for 4 days at 90-100% relative humidity and +20° C. Fungal infestation is effectively controlled with compounds of Tables 1 to 35. Compounds E1.003, E1.004, E1.009, E1.011, E1.012, E1.019, E1.020, E1.021, E1.022, E1.025, E1.031, E1.032, E1.033, E1.038, E1.045, E1.049, E1.050, E1.053, E1.085, E1.089, E1.090, E1.091, E1.102, E1.110, E1.112, E1.121, E1.125, E1.129 at 200 ppm inhibit fungal infestations in both tests D-3a) and D-3b) by 80-100%.

Phytophthora [2] = test: D-2b) systemic action against Phytophthora on tomato plants; assay type: in vivo; conditions: Phytophthora, 96 h; 200 ppm; test D-2b) systemic (soil watering), evaluated after 4 days, read-out: inhibit fungal infestations
Description: (§2) D-2: Action Against Phytophthora on Tomato Plants
After a cultivation period of 3 weeks, tomato plants are watered with a spray mixture (0.02% active ingredient based on the volume of the soil) prepared from a wettable powder formulation of the test compound. […] After 96 hours, the treated plants are infected with a sporangia suspension of the fungus. Fungus infestation is evaluated after incubation of the infected plants for 4 days at 90-100% relative humidity and +20° C. […] Compounds E1.003, E1.004, E1.009, E1.011, E1.012, E1.014, E1.018, E1.019, E1.020, E1.021, E1.022, E1.023, E1.025, E1.031, E1.032, E1.033, E1.038, E1.040, E1.044, E1.045, E1.049, E1.050, E1.053, E1.055, E1.057, E1.064, E1.085, E1.089, E1.090, E1.091, E1.102, E1.08, E1.110, E1.112, E1.121, E1.125, E1.129, E1.139 and E1.141 at 200 ppm inhibit fungal infestations in both tests D-2a) and D-2b) by 80-100%.

Plasmopara viticola [3] = test: D-1a) residual-protective action against Plasmopara viticola on vines; assay type: in vivo; conditions: Plasmopara viticola, 144 h; 200 ppm; test D-1a) residual-protective; vine seedlings; evaluated after 6 days; read-out: inhibit fungal infestations
Description: (§3) D-1: Action Against Plasmopara viticola on Vines
(§4) a) Residual-protective Action
Vine seedlings are sprayed at the 4- to 5-leaf stage with a spray mixture (0.02% active ingredient) prepared from a wettable powder formulation of the test compound. After 24 hours, the treated plants are infected with a sporangia suspension of the fungus. Fungus infestation is evaluated after incubation for 6 days at 95-100% relative humidity and +20° C.

Plasmopara viticola [4] = test: D-1b) residual-curative action against Plasmopara viticola on vines; assay type: in vivo; conditions: Plasmopara viticola, 144 h; 200 ppm; test D-1b) residual-curative; vine seedlings; evaluated 6 days after infection; read-out: inhibit fungal infestations
Description: as §3
b) Residual-curative Action
Vine seedlings are infected at the 4- to 5-leaf stage with a sporangia suspension of the fungus. After incubation for 24 hours in a humidity chamber at 95-100% relative humidity and +20° C., the infected plants are dried and sprayed with a spray mixture (0.02% active ingredient) prepared from a wettable powder formulation of the test compound. After the spray coating has dried, the treated plants are placed in the humidity chamber again.
Fungus infestation is evaluated 6 days after infection.

Phytophthora [5] = test: D-2a) residual-protective action against Phytophthora on tomato plants; assay type: in vivo; conditions: Phytophthora, 120 h; 200 ppm; test D-2a) residual-protective, evaluated after 5 days, read-out: inhibit fungal infestations
Description: as §2, §4
After a cultivation period of 3 weeks, tomato plants are sprayed with a spray mixture (0.02% active ingredient) prepared from a wettable powder formulation of the test compound. After 48 hours, the treated plants are infected with a sporangia suspension of the fungus. Fungus infestation is evaluated after incubation of the infected plants for 5 days at 90-100% relative humidity and +20° C.

Phytophthora [6] = test: D-3a) residual-protective action against Phytophthora on potato plants; assay type: in vivo; conditions: Phytophthora, 96 h; 200 ppm; test D-3a) residual-protective; potato plants (Bintje); evaluated after 4 days; read-out: inhibit fungal infestations
Description: as §1, §4
2-3 week old potato plants (Bintje variety) are sprayed with a spray mixture (0.02% active ingredient) prepared from a wettable powder formulation of the test compound. After 48 hours, the treated plants are infected with a sporangia suspension of the fungus. Fungus infestation is evaluated after incubation of the infected plants for 4 days at 90-100% relative humidity and +20° C.

C#CCOc1ccc(CCNC(=O)C(OCC#C)c2ccc(Br)cc2)cc1OC (stereo not drawn) [Compound E1.022, 2-(4-bromo-phenyl)-N-[2-(3-methoxy-4-prop-2-ynyloxy-phenyl)-ethyl]-2-prop-2-ynyloxy-acetamide]
80 to 100%: inhibition at 200 ppm (Phytophthora [1]) | inhibition at 200 ppm (Phytophthora [2]) | inhibition at 200 ppm (Plasmopara viticola [3]) | inhibition at 200 ppm (Plasmopara viticola [4]) | inhibition at 200 ppm (Phytophthora [5]) | inhibition at 200 ppm (Phytophthora [6])
92 to 94 °C: melting point

C#CCOc1ccc(CCNC(=O)C(Cl)c2ccc(Br)cc2)cc1OC (stereo not drawn)
100 to 102 °C: melting point

C#CCOc1ccc(CCNC(=O)C(OCC#C)c2ccc(C)cc2)cc1OC (stereo not drawn) [Compound E1.045, 2-(4-tolyl)-N-[2-(3-methoxy-4-prop-2-ynyloxy-phenyl)-ethyl]-2-prop-2-ynyloxy-acetamide]
80 to 100%: inhibition at 200 ppm (Phytophthora [1]) | inhibition at 200 ppm (Phytophthora [2]) | inhibition at 200 ppm (Plasmopara viticola [3]) | inhibition at 200 ppm (Plasmopara viticola [4]) | inhibition at 200 ppm (Phytophthora [5]) | inhibition at 200 ppm (Phytophthora [6])
81 to 82 °C: melting point

C#CCOc1ccc(CCNC(=O)C(OCC#C)c2ccc(CC)cc2)cc1OC (stereo not drawn) [Compound E1.053, 2-(4-ethyl-phenyl)-N-[2-(3-methoxy-4-prop-2-ynyloxy-phenyl)-ethyl]-2-prop-2-ynyloxy-acetamide]
80 to 100%: inhibition at 200 ppm (Phytophthora [1]) | inhibition at 200 ppm (Phytophthora [2]) | inhibition at 200 ppm (Plasmopara viticola [3]) | inhibition at 200 ppm (Plasmopara viticola [4]) | inhibition at 200 ppm (Phytophthora [5]) | inhibition at 200 ppm (Phytophthora [6])

C#CCOc1ccc(CCNC(=O)C(OCC#CC)c2ccc(Br)cc2)cc1OC (stereo not drawn) [Compound E1.025, 2-(4-bromo-phenyl)-2-but-2-ynyloxy-N-[2-(3-methoxy-4-prop-2-ynyloxy-phenyl)-ethyl]-acetamide]
80 to 100%: inhibition at 200 ppm (Phytophthora [1]) | inhibition at 200 ppm (Phytophthora [2]) | inhibition at 200 ppm (Plasmopara viticola [3]) | inhibition at 200 ppm (Plasmopara viticola [4]) | inhibition at 200 ppm (Phytophthora [5]) | inhibition at 200 ppm (Phytophthora [6])

C#CCOc1ccc(CCNC(=O)C(OCC#C)c2ccc(F)cc2)cc1OC (stereo not drawn) [Compound E1.033, 2-(4-fluoro-phenyl)-N-[2-(3-methoxy-4-prop-2-ynyloxy-phenyl)-ethyl]-2-prop-2-ynyloxy-acetamide]
80 to 100%: inhibition at 200 ppm (Phytophthora [1]) | inhibition at 200 ppm (Phytophthora [2]) | inhibition at 200 ppm (Plasmopara viticola [3]) | inhibition at 200 ppm (Plasmopara viticola [4]) | inhibition at 200 ppm (Phytophthora [5]) | inhibition at 200 ppm (Phytophthora [6])
